Experimental data: patent publication US7799524B2, “Substrates for O6-alkylguanina-DNA alkyltransferase” (Ecole Polytechnique Ferdeale de Lausanne, priority 2002, dated 2010)
Positions count from the first letter of the chain named.

Columns and labels:
[1] = system: yeast strain L40 expressing LexA and B42 fusion proteins of ^3HYhAGT and DHFR; experiment: Quantitative β-galactosidase assay using ONPG (lacZ reporter) in yeast L40; format: cell-based; conditions: 1 μM, cell extracts of liquid cultures
Procedure: The activation of transcription of the lacZ reporter gene by the benzyl guanine based compounds 78 and 79 in the yeast strain L40 expressing different combinations of LexA and B42 fusion proteins is examined (Table 2). In this assay, the activity of the product of the lacZ gene, β-galactosidase, is determined by measuring the hydrolysis rate of the chromogenic substrate o-nitrophenyl-β-D-galactopyranoside (ONPG) in cell extracts of liquid cultures.

[2] = molecular target: T1, GST-^3HYhAGT (Homo sapiens, UniProt P16455, A127T/K125A/N157G/R128A/S159E); experiment: In vitro reactivity against GST-^3HYhAGT followed by Western Blotting with anti-methotrexate antibody; format: biochemical
T1 construct: made in house; host or cells: E. coli
T1 sequence (P16455 1-207 K125A/A127T/R128A/N157G/S159E): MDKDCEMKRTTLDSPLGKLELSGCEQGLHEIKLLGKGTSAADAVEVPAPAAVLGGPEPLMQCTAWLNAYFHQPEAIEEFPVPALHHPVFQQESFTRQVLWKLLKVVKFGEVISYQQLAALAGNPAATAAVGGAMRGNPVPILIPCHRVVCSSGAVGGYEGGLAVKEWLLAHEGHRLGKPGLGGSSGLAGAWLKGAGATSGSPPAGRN
Procedure: GST-^3HYhAGT is incubated with an excess of 78 or 79 and the reaction is followed by Western Blotting using an anti-methotrexate antibody. […] Accordingly, at concentrations of 78 of 1 μM and at an excess of 78 over ^3HYhAGT (pseudo first-order conditions), 50% of the protein is labelled in less than 10 min.
For the construction of hAGT fusion proteins, preferably the mutant Asn157Gly Ser159Glu is used. […] The rationale behind the introduction of these mutations is to minimize the interaction of hAGT fusion proteins with DNA in the three-hybrid system. The resulting hAGT mutant carrying the five mutations described above is abbreviated as ^3HYhAGT.

[3] = system: yeast L40 expressing LexA and B42 fusion proteins of ^3HYhAGT and DHFR; experiment: Growth assay of yeast L40 strains on plates lacking histidine (HIS3 reporter, three-hybrid system); format: cell-based; conditions: for Growth rate: plates lacking histidine
Procedure: Pairs of plasmids encoding LexA-^3HYhAGT and B42-DHFR fusion proteins are transformed into the yeast strain L40 in which the reconstitution of functional LexA-B42 transcription factor leads to transcription of the reporter genes HIS3 and lacZ. It is tested if the expression of different combinations of fusion protein in the presence of either 78 or 79 complemented the histidine auxotrophy of the yeast L40 (Table 1). […] No growth is observed in the absence of 78 or 79.
In principal, the reconstitution of functional transcription factor through benzyl guanine 78 and 79 is independent of which ligand-binding protein is fused to LexA and which to B42. To verify this assumption the growth of yeast L40 co-expressing LexA-DHFR and B42-^3HYhAGT on plates lacking histidine but containing compounds 78 or 79 is examined.

[4] = molecular target: T2, hAGT (Homo sapiens, UniProt P16455); conditions: reaction with hAGT; cited from earlier work
T2 sequence (P16455 1-207): T1 sequence (P16455 1-207 K125A/A127T/R128A/N157G/S159E) with A125K, T127A, A128R, G157N, E159S

[5] = molecular target: T3, ^PGEAhAGT-GST (Homo sapiens, UniProt P16455, G160A/N157G/S159E); experiment: Reactivity with hAGT fusion protein: pre-incubation with compound, then biotinylated O^6-benzylguanine-oligonucleotide, Western Blot (anti-biotin); format: biochemical; conditions: 18 pmol protein, 0.2 μL of 5 mM compound in 15 μL 50 mM HEPES pH 7.5, 1 h, then 10 pmol biotinylated oligonucleotide 15 min
T3 sequence (P16455 1-207 N157G/S159E/G160A): T1 sequence (P16455 1-207 K125A/A127T/R128A/N157G/S159E) with A125K, T127A, A128R, G160A
Procedure: Lane marked “C” (control): The reaction product of ^[…] and the biotinylated O^6-benzylguanine oligonucleotide. […] Damoiseaux et al., ChemBiochem 4: 285-287, 2001) is added, and the reaction is allowed to continue for further 15 min. As a control 18 pmol ^[…] are incubated with 10 pmol of the same biotinylated oligonucleotide in a total volume of 15 μL of 50 mM HEPES pH 7.5 for 15 min without any substrate. Detection of the biotinylated reaction product between ^[…] and the biotinylated oligonucleotide is performed by Western Blotting using an anti-biotin conjugate coupled to HRP (Pierce).

[6] = molecular target: T3, ^PGEAhAGT-GST; experiment: Labelling of hAGT fusion protein, Western Blot with anti-fluorescein antibody; format: biochemical; conditions: 18 pmol ^PGEAhAGT-GST, 0.5 nmol compound, 15 μL 50 mM HEPES pH 7.5
Procedure: Lanes 1 and 2 (two different concentrations) show the reaction product of compound 60 bearing a fluorescein label and a biotin label (a compound of formula 1 wherein L is a plurality of labels) with ^PGEAhAGT-GST.
18 pmol ^PGEAhAGT-GST are incubated with 0.5 nmol 60 in a total volume of 15 μL of 50 mM HEPES pH 7.5. The reaction product is detected by Western Blotting using a goat anti-fluorescein antibody (Rockland) and a HRP conjugated anti-goat antibody (Sigma).

[7] = co-expression of LexA-DHFR and B42-^3HYhAGT
[8] = co-expression of LexA-^3HYhAGT and B42-DHFR

In the case of `CN(Cc1cnc2nc(N)nc(N)c2n1)c1ccc(C(=O)N[C@@H](CCC(=O)NCCCCCCCCCCCC(=O)NCc2ccc(COc3nc(N)nc4[nH]cnc34)cc2)C(=O)O)cc1` [compound 78], the ONPG hydrolysis ([1]; LexA-DHFR/ B42-^3HYhAGT) is reported as 28 nM of o-nitrophenol formed per min per mg total protein, the ONPG hydrolysis ([1]; LexA-^3HYhAGT/ B42-DHFR) is reported as 865 nM of o-nitrophenol formed per min per mg total protein and the “time in which 50% of the protein is labelled” value ([2]; 1 μM 78, excess over ^3HYhAGT, pseudo first-order conditions) is reported as “less than 10 min”. The kinact/KI ([2]; GST-^3HYhAGT incubated with an excess of compound, read-out: second-order rate constant) was ~1500 M⁻¹ s⁻¹, the Growth rate ([3]; LexA-DHFR/ B42-^3HYhAGT, 1 μM) was “++ (detection of colonies within 3 days)” and the Growth rate ([3]; LexA-^3HYhAGT/ B42-DHFR, 1 μM) was “+++ (detection of colonies within 2 days)”. The “growth of yeast L40 on plates lacking histidine (in words)” value (“growth of yeast L40” for short) [3, 7] was “growth dependent on compounds 78 or 79 is observed” and the “growth of yeast L40” value [3, 8] was “allows yeast L40 to grow on plates lacking histidine”.
For `Nc1nc(OCc2ccccc2)c2nc[nH]c2n1` [O^6-benzylguanine], the “second order rate constant” value [4] is listed as “approximately 10^3 sec^−1 M^−1”.
In the case of `NCCOCCOCCOCCn1cc(COc2nc(N)nc3[nH]cnc23)nn1` [compound 11, O^6-(1-[11-Amino-3,6,9-trioxaundecyl]-1,2,3-triazolyl-4-methyl)guanine], the “reaction of ^PGEAhAGT-GST with biotinylated oligonucleotide after first reacting with the compound” value [5] is reported as “no further reaction with biotinylated oligonucleotide is observed”.
In the case of `CN(Cc1cnc2nc(N)nc(N)c2n1)c1ccc(C(=O)NC(CCC(=O)NCCOCCOCCOCCOCc2ccc(COc3nc(N)nc4nc[nH]c34)cc2)C(=O)O)cc1` (stereo not drawn) [compound 79, O^6-4-[13-N-(4-{4-[N-(2,4-Diamino-6-pteridinylmethyl)-methylamino]-benzoyl-amino}-4-carboxybutanoyl)-amino-2,5,8,11-tetraoxatridecyl]-benzyl guanine], the ONPG hydrolysis ([1]; LexA-DHFR/ B42-^3HYhAGT) is reported as 24 nM of o-nitrophenol formed per min per mg total protein, the ONPG hydrolysis ([1]; LexA-^3HYhAGT/ B42-DHFR) is reported as 63 nM of o-nitrophenol formed per min per mg total protein and the second-order rate constant ([2]; GST-^3HYhAGT incubated with an excess of compound) is reported as ~900 sec^−1M^−1. The Growth rate ([3]; LexA-DHFR/ B42-^3HYhAGT, 10 μM) was “++ (detection of colonies within 3 days)”, the Growth rate ([3]; LexA-^3HYhAGT/ B42-DHFR, 10 μM) was “+++ (detection of colonies within 2 days)” and the “growth of yeast L40” value [3, 7] was “growth dependent on compounds 78 or 79 is observed”. For the same molecule, the “growth of yeast L40” value [3, 8] was “allows yeast L40 to grow on plates lacking histidine”.
In the case of `Nc1nc(OCc2ccc(COCCOCCOCCOCCNC(=O)C(CCCCNC(=O)CCCCCNC(=O)c3ccc(-c4c5ccc(=O)cc-5oc5cc(O)ccc45)c(C(=O)O)c3)NC(=O)CCCCCNC(=O)CCCC[C@H]3SC[C@H]4NC(=O)N[C@H]43)cc2)c2nc[nH]c2n1` (stereo partly drawn) [compound 60, O^6-Benzylguanine-PEG-amino-α-N-(biotinyl-6-aminocaproyl)-ε-N-(6-[fluorescein-5-carbonyl]-aminocaproyl)-lysine], the “substrate for hAGT (reaction product detected by Western Blotting)” value [6] is reported as “efficient substrate for hAGT”.
